Data as given in patent publication US20210393616A1, “PHARMACEUTICAL COMPOSITIONS AND METHODS FOR TREATING PSYCHOSIS” (UNIVERSITA' DEGLI STUDI DI CAGLIARI, priority 2018, published 2021).

Tests used:
D2 receptors = assay: Contractility of the rabbit ear artery, antagonism of the selective D2 agonist quinpirol; details: for antagonism of the effect of the selective D2 agonist quinpirol: 100 nM
human D2long receptor = target: T1, human D2long receptor (Homo sapiens, UniProt P14416); assay: Replacement of [3H]methyl-spiperone binding from human D2long receptor expressed by HEK-293 cells
T1 construct: expressed in transfected cells; host or cells: HEK-293
Procedure: In particular, the receptor binding study was conducted by analysing the ability to replace the binding of [^3H]methyl-spiperone from the human D2long receptor expressed by HEK-293 cells (Hall, D. A. and Strange, P. G., 1997, Brit. J. Pharmacol. 121:731-736).

rats [1] = assay: Amphetamine-induced hypermotility test; format: in vivo, rat; details: 3 mg/kg i.p.; amphetamine 2.5 mg/kg i.p.; FIG. 1
Procedure: Some behavioural tests were also conducted to identify possible antipsychotic properties of RS-79948-197.

rats [2] = assay: Quinpirol-induced stereotypies; format: in vivo, rat
Text: The data are the average of 6 rats and are expressed in total counts. *P<0.01 vs. treatment with physiological saline (Student's t-test).

rats [3] = assay: Pre-pulse inhibition (PPI) deficit induced by MK-801; format: in vivo, rat; details: RS-79948-197 3 mg/kg i.p.; MK-801 0.1 mg/kg i.p.; FIG. 3
Procedure: The data are the average of 4-8 rats. *P<0.05, **P<0.01 vs. VEH+MK (one-way ANOVA followed by Tukey's Test).
The activity of RS-79948-197 was also evaluated on the deficit of “pre-pulse inhibition” (PPI) induced by MK-801, an antagonist of NMDA receptors of glutamate. As already mentioned previously, this latter test is considered the “gold standard” for the evaluation of the possible atypical antipsychotic activity of a drug and is predictive of the efficacy on negative symptoms, as well as on positive ones, of schizophrenia.

[4] = test system: extracellular levels of dopamine; assay: Microdialysis of extracellular dopamine in rat medial prefrontal cortex; format: in vivo; details: free-moving rats, RS-79948-197 3 mg/kg i.p., clozapine 2.5 mg/kg i.p., FIG. 4
Procedure: The drugs were administered at time T=60 min, as indicated by the arrow. The values are expressed as a percentage of the basal value (mean+/−SEM).
Also, the effect of RS-79948-197 on the extracellular levels of dopamine in the rat prefrontal cerebral cortex, through microdialysis in free-moving rats, was further evaluated. As can be clearly seen in the appended FIG. 4, the effects of the two drugs are substantially overlapping, as both have increased the extracellular concentration of dopamine up to about 250% of the respective basal value. Given the hypothesis of cortical hypodopaminergy in the etiopathogenesis of schizophrenia, the ability of a drug to increase the cortical dopamine is considered a favourable effect for its antipsychotic properties.

T1 sequence (P14416 whole entry): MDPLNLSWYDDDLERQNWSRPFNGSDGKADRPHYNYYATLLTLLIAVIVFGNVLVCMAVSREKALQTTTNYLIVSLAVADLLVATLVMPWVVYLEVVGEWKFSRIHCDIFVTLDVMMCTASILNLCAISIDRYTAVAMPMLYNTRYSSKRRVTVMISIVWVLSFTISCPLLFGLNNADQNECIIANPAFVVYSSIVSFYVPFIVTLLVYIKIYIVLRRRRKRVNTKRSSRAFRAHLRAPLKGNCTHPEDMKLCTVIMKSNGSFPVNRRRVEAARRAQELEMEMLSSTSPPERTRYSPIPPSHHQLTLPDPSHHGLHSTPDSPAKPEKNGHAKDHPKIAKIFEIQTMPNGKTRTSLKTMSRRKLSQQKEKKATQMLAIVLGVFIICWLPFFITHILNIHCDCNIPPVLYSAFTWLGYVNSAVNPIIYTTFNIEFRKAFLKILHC

Row | Compound | antagonism of the effect of the selective D2 agonist quinpirol (D2 receptors) | affinity relative to that of clozapine (human D2long receptor; human D2long receptor) | Ki (human D2long receptor; human D2long receptor expressed by HEK-293 cells, read-out: Ki, inhibition of [3H]methyl-spiperone binding) [nM] | effect on quinpirol-induced release at higher concentrations (D2 receptors; higher concentrations than 100 nM) | total distance travelled by rats in 120 minutes (rats [1]) | stereotypies induced by quinpirol (rats [2]; 3 mg/kg i.p., quinpirol 0.5 mg/kg i.p., FIG. 2) | extrapyramidal effects per se (rats [2]; rats) | PPI deficit induced by MK-801 (rats [3]) | extracellular concentration of dopamine, percentage of basal value [4]
1 | CCN1CCCC1CNC(=O)c1cc(S(N)(=O)=O)ccc1OC (stereo not shown) [sulpiride, reference compound] | about 40% |  |  |  |  |  |  |  | 
2 | CCS(=O)(=O)N1CCC[C@@H]2CN3CCc4cc(OC)ccc4[C@@H]3C[C@@H]21.Cl [RS-79948-197, (8aR,12aS,13aS)-5,8,8a,9,10, 11, 12, 12a, 13, 13a-decahydro-3-methoxy-12-(ethylsulphonyl)-6H-isoquino[2,1-g][1,6]naphthyridine] | 70% | about twice | 95 | completely cancelled | significantly decreased | effectively reduced | without inducing per se extrapyramidal effects | effectively reduced | about 250 % of the respective basal value
